Laboratory results from patent US7256172B1, “Method of treatment and agents useful for same” (The University of Melbourne, priority 1998, dated 2007).
Values belong to the molecule of their own block, whether it stands above or below them. No end group written: not given here.

Tests used:
mouse bronchial rings = conditions: for response of epithelium-intact bronchi: contracted to approximately 40% Fmax with carbachol; for response in presence of cyclooxygenase inhibitors: indomethacin (3 μM) or aspirin (100 μM)
Excerpt: (§1) The right and left main bronchi and their first order branches of specific pathogenfree (SPF) Balb/c mice (15–20 g; either sex), Hartley tricolour guinea-pigs (300–400 g; male) and Sprague-Dawley rats (200–350 g; either sex), all killed by either cervical dislocation or overdosed (i.p.) with sodium pentobarbitone, were cleared of surrounding connective tissue, nerves and blood vessels under a dissecting microscope and placed in cold, carbogenated (95% v/v O2,5% v/v CO2) Krebs solution (Kemp and Cocks, 1997). Human airway preparations (0.5–1 mm in external diameter) were dissected from lungs of cancer patients undergoing thoracotomy at The Royal Melbourne Hospital, Melbourne, Australia. The epithelium was removed from some bronchi either by mechanical abrasion of the luminal surface (guinea-pig) or by brief, gentle intraliminal flushing of the airways with Krebs containing 0.1% v/v Triton-X100 (mouse and rat). In each case, removal of the epithelium was verified histologically in 8 μm formalin-fixed, paraffin sections stained with haemotoxylin and eosin. Ring segments (approximately 2 mm long) of bronchi and bronchioles were mounted in Krebs (37° C.) on stainless steel wires (40 μm) in dual channel (5 ml) Mulvany-Halpern myographs (JP Trading, Aarhus, Denmark) to record changes in isometric force (Kemp and Cocks, 1997). After equilibration at a passive force between 0.2 g and 0.3 g, tissues were contracted to their maximum levels of active force (Fm.),) with acetylcholine (30 μM), thoroughly washed with Krebs and allowed to return to baseline. Various drugs or their vehicles were then added and 30 min later all tissues were contracted to approximately 40% Fmax with titrated concentrations of carbachol (10–500 nM). The L-type voltage-operated Ca^2+ channel inhibitor, nifedipine (0.3 μM) was added to all mouse and rat tissues after obtaining Fmax to control characteristic phasic contractile activity with carbachol.
If no response occurred the tissues were then exposed to cumulative concentrations of either SLIGRL—NH2 (SEQ ID NO:2) or SFLLRN—NH2 (SEQ ID NO:1) (0.1–30 μM).
(§2) Results are presented as mean±s.e mean and pEC50 (sensitivity) values were calculated by fitting concentration-response curves to a four parameter logistic function (Kemp and Cocks, 1997) using Graphpad Prism (version 2.0). Statistical comparison of mean pEC50 and maximum response (Rmax) values were compared by two-tailed unpaired Student's t-tests or one way analysis of variance (ANOVA) with Tukey-Kramer's t-tests for multiple comparisons. P<0.05 was accepted as significant. Unless specified, all averaged data are from n>5 experiments.
Mouse bronchus preparations were carefully mounted horizontally on fine (40 μm) stainless steel wires attached to the jaws of a Mulvany-Halpem myograph. After 60 min at 37° C., all rings were stretched to 0.5 g passive force, which had been determined in preliminary experiments to be optimal, and allowed to recover from that stretch for a further 30 min. Maximum contraction (Fmax) in each tissue was then determined with exogenously applied acetylcholine (ACh; 30 μM) followed by washout. A further 30 min equilibration time was allowed before the tissues were actively contracted to between 20% and 60% of their individual Fm.” values with titrated concentrations of carbachol (10–100 nM). […] In some cases, tissues were treated with a range of drugs prior to contraction to approximately […] Fmax. These included the cyclooxygenase inhibitors indomethacin and aspirin, the nitric oxide (NO) synthase inhibitor N′-nitro-L-(L-NOARG), the NO scavenger oxyhaemoglobin (Hb0), and the L-voltage-operated Cat' channel inhibitor nifedipine.
After an initial passive stretch to 0.5 g (Ti) and recovery, each ring was contracted with acetylcholine (Ach; 30 μM). The contraction was taken as the tissue maximum and referred to as Fmax.

[1] = tested on: isolated human bronchioles
Method: Small (500 μm) bronchioles were carefully dissected from discarded sections of human left lung which had been excised at surgery from two male lung cancer patients (Royal Melbourne Hospital, Melbourne, Australia).
Dissection of these bronchioles required a fine-dissecting microscope and an assistant to continually flood the preparation with cold oxygenated Krebs solution to remove air bubbles and keep the tissue viable. Bronchioles approximately 2 mm in length were then mounted on […] diameter stainless wires in a Krebs solution-filled myograph chamber, as described for the mouse bronchus preparation above.

monkey small bronchi = tested on: monkey small bronchi
Excerpt: The experimental details are similar to those for the mouse isolated bronchi. Briefly, approximately 2 mm long rings of small bronchi were mounted on wire hooks. In each trace, half log concentrations are not depicted for clarity.

[2] = tested on: human coronary artery rings; conditions: for relaxation after removal of the endothelium: endothelium-denuded; for maximum (Rmax % contraction reversal): endothelium-intact, control
[3] = tested on: human bronchial epithelium; conditions: after amiloride
Method: Human airways were obtained from discarded sections of lungs of patients undergoing lobectomy operations at the Royal Melbourne Hospital, Melbourne, Australia usually for lung cancer. The dissection and set up were as described above for the mouse trachea.
(§3) After an equilibration time of 30 min, compounds for testing and drugs to elucidate the mechanism of any changes in Isc to the test compounds were added to either side of the tracheal epithelium (ie to either bath). Compounds used for increasing Isc were PGE2, adenosine 5′-triphosphate (ATP), uridine 5′-triphosphate (UTP) and the PAR1-, PAR2- and PAR4-activating peptides, SFLLRN (SEQ ID NO:1) and SLIGRL (SEQ ID NO:2) and GYPGQY (SEQ ID NO:6), respectively. These stimulants were added cumulatively with controls for any time-dependent tachyphylaxis.

guinea-pig taenia coli = conditions: apamin (100 μM)
Method: 2 cm strips of teania coil with intact Auerbach's plexus, but which had been stripped of the mucosa, were suspended in Kreb's solution under 1 g passive tension, and contracted with histamine (1 μM) to induce active tension.

mouse trachea = conditions: for increase in Isc in presence of indomethacin: cyclooxygenase inhibitor indomethacin; for change in Isc: luminally applied
Excerpt: Mice were killed by a lethal overdose of sodium pentobarbitone and the tracheae rapidly excised. The trachea was opened longitudinally through the ventral cartilage rings to make a fiat sheet. Each sheet of trachea was mounted between two perspex chambers so that the mucosal (luminal) and submucosal and bathed with warmed, oxygenated Krebs' solution, independently on each side. Electrodes in the chambers allowed recordings of transepithelial potential difference using an amplifier. The tissue was voltage clamped at 0 mV by passing a current from the amplifier via another set of electrodes in the chambers. The amount of current required to maintain voltage at 0 mV is defined as the short circuit current (Isc) and is conventionally used as a measure of all ionic fluxes across the preparation.
as §3

[4] = biological target: PAR1-like receptor ("atypical" thrombin receptor) of human coronary artery endothelial cells (human); assay: cell-based or functional assay
[5] = biological target: guinea-pig protease activated receptor 2 (PAR2), in guinea-pig bronchus tissue (guinea-pig); assay: cell-based or functional assay
[6] = biological target: T1, mouse protease activated receptor 2 (PAR2), in mouse bronchus and trachea tissue (mouse) (UniProt P55086); assay: cell-based or functional assay
T1 sequence (looked up): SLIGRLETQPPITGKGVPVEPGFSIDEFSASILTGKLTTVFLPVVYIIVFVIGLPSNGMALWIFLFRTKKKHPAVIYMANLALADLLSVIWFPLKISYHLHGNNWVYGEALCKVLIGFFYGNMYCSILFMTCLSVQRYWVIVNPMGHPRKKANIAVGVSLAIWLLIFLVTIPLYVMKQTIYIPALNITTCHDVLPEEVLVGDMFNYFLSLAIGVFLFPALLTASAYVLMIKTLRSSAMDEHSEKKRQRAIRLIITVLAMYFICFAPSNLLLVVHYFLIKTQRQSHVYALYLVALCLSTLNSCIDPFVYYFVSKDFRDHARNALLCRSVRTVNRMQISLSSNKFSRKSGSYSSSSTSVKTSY

[7] = biological target: T2, rat protease activated receptor 2 (PAR2), in rat airway tissue (rat) (UniProt Q63645); assay: cell-based or functional assay
T2 sequence (looked up): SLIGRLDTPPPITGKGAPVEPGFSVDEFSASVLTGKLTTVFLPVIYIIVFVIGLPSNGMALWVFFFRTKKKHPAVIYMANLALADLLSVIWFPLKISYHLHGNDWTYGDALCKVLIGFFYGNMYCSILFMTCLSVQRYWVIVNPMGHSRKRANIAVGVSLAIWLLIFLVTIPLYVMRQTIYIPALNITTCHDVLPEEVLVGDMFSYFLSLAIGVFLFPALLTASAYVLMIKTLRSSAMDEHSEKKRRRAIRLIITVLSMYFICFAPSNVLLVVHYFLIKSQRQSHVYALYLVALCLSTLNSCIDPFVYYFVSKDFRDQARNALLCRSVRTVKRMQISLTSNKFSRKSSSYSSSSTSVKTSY

[8] = biological target: mouse protease activated receptor 1 (PAR1), in mouse bronchus and trachea tissue (mouse) (UniProt P30558); assay: cell-based or functional assay
Sequence of mouse protease activated receptor 1 (PAR1), in mouse bronchus and trachea tissue (mouse) (P30558 42-430): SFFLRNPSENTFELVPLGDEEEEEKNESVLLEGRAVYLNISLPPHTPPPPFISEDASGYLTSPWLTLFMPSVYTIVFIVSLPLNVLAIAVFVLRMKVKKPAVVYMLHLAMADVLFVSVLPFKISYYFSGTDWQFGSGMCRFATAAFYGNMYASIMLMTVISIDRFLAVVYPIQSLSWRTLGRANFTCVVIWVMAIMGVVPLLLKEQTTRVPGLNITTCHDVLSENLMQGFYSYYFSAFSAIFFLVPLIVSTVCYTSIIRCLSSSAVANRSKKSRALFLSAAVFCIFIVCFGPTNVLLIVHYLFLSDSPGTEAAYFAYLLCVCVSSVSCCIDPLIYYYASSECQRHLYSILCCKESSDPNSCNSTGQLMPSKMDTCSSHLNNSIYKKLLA

rat isolated bronchi = tested on: rat isolated bronchi
Excerpt: as §1
as §2, with “All cumulative responses (relaxations and contractions) were normalised as percentages of the initial level of active force to carbachol. Results” for “Results”

human distal colon = tested on: human distal colon
Method: Human distal colon strips obtained at bowel resection were suspended at 1 g passive isometric force and contracted with substance P (30 μM) to maintain a steady level of active tension.

PAR1 = PAR1 (Homo sapiens, UniProt P25116); conditions: concentrations up to 1 mM, human platelets; cited from earlier work
Sequence of PAR1 (P25116 22-425): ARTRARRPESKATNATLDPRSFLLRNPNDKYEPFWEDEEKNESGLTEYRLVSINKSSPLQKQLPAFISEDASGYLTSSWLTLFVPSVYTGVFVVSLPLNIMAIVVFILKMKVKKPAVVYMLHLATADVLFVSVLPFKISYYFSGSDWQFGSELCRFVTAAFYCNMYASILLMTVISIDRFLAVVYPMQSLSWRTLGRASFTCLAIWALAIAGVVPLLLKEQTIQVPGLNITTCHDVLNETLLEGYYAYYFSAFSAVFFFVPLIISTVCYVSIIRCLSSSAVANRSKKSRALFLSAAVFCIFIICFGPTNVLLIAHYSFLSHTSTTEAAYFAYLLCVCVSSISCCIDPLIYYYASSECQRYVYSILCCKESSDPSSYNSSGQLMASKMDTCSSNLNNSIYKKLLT

Molecule: trypsin
- response of epithelium-intact bronchi (mouse bronchial rings): activity-dependent relaxation
- response in presence of cyclooxygenase inhibitors (mouse bronchial rings): blocked by indomethacin
- response of human bronchioles [1]: activity dependent relaxation that was reversed by indomethacin
- effect on monkey small bronchi (monkey small bronchi): smooth muscle relaxing effects
- relaxation after removal of the endothelium [2]: abolished
- maximum (Rmax % contraction reversal) [2]: 88.1±2.9%

Molecule: SLIGKV-NH2
- change in Isc [3]: relatively poor response
- effect on monkey small bronchi (monkey small bronchi): smooth muscle relaxing effects
- maximum (Rmax % contraction reversal) [2]: 39.9±11.0%

Molecule: Nc1ncnc2c1ncn2[C@@H]1O[C@H](COP(=O)(O)OP(=O)(O)OP(=O)(O)O)[C@@H](O)[C@H]1O [ATP, adenosine 5′-triphosphate]
- relaxation in presence of apamin (guinea-pig taenia coli): no relaxation
- increase in Isc in presence of indomethacin (mouse trachea): unaffected
- change in Isc (mouse trachea): rapid initial rise in Isc usually followed by some degree of recovery until a steady plateau was reached

- pEC50 (sensitivity), endothelium-dependent relaxation of U46619-contracted human coronary artery rings [4]: 2.5 log U/ml
Molecule: alpha-thrombin (bovine serum, Sigma) (from UniProt P00735 318-625) (enzyme)

- pEC50, epithelium-dependent relaxation of guinea-pig isolated bronchi [5]: 5.4 -log M
- pEC50 (sensitivity), relaxation of carbachol-contracted mouse bronchial rings [6]: 5.6 -log M
- pEC50, relaxation of first generation branches of the mouse main bronchi [6]: 5.1 -log M
- pEC50, epithelium-dependent relaxation of rat isolated bronchi [7]: 5.5 -log M
- pEC50, relaxation of rat bronchioles [7]: 5.1 -log M
Molecule: SLIGRL-NH2 (mouse PAR2 tethered ligand sequence, PAR2 activating peptide)

- pEC50 (sensitivity), endothelium-dependent relaxation of U46619-contracted human coronary artery rings [4]: 1.7 log U/ml
Molecule: trypsin (bovine pancreas, Worthington Biochem) (from UniProt P00760 24-246) (enzyme)

- pEC50, relaxation of human coronary artery, untreated tissue [4]: 7 -log M
- pEC50, relaxation of precontracted human coronary artery segments [4]: 6.9 -log M
- pEC50, relaxation of carbachol-contracted mouse bronchial rings [8]: 5.6 -log M
- pEC50, relaxation of first generation branches of the mouse main bronchi [8]: 5.5 -log M
Molecule: SFLLRN-NH2 (human PAR1 tethered ligand sequence, thrombin receptor-activating peptide)
- pEC50, relaxation of human coronary artery after desensitisation to thrombin and trypsin [4]: 6.4 -log M

Molecule: thrombin
- response of epithelium-intact bronchi (mouse bronchial rings): only poor indomethacin sensitive relaxation at high concentrations
- response in presence of cyclooxygenase inhibitors (mouse bronchial rings): converted to contractions by indomethacin
- response of rat bronchial rings (rat isolated bronchi): small relaxation
- response of human bronchioles [1]: activity dependent relaxation that was reversed by indomethacin
- response of human distal colon (human distal colon): did not result in relaxation
- effect on monkey small bronchi (monkey small bronchi): smooth muscle relaxing effects
- relaxation after removal of the endothelium [2]: abolished
- maximum (Rmax % contraction reversal) [2]: 88.9±4.9%

Molecule: prostaglandin E2 [PGE2, reference compound]
- response of epithelium-intact bronchi (mouse bronchial rings): potent and maximum relaxation
- relaxation after removal of the epithelium (mouse bronchial rings; epithelium removed with 0.1% v/v Triton X-100): could still sensitively relax
- maximum relaxation (Rmax) (mouse bronchial rings; main bronchi with epithelium, % of initial force to carbachol): 100%
- sensitivity (pEC50) (mouse bronchial rings; main bronchi with epithelium, contracted with carbachol): 8.2±0.1 −log M
- increase in Isc in presence of indomethacin (mouse trachea): unaffected
- change in Isc (mouse trachea): rapid initial rise in Isc usually followed by some degree of recovery until a steady plateau was reached

Molecule: SLIGKVD-NH2
- activation of PAR1 (PAR1): does not activate PAR1
